# Data reported in patent US11319337B2, “3-desoxy derivative and pharmaceutical compositions thereof” (Intercept Pharmaceuticals, Inc., priority 2016, dated 2022).
# Structures can show the parent of a compound that is named as a salt. Where two headings read alike, the source gives them in different places.
# Tests used:
# [1] = target: LXRβ (Homo sapiens, UniProt P55055); experiment: AlphaScreen nuclear receptor profile (agonist mode), LXRβ; format: biochemical
# [2] = target: T1, Pgp (Homo sapiens, UniProt P08183); experiment: Pgp-Glo Assay, Pgp ATPase activity; format: in vitro ADME; conditions: read-out: Pgp Substrate EC50
# T1 construct: purchased V3591 and V3601
# Source text: The impact of Compound 1 on Pgp ATPase activity was examined in Pgp-GloTM Assay (Technical Bulletin; Pgp-GloTM Assay Systems Instructions for Use of Products […] and […]; Revised November 2015) according to the manufacturer's standard protocol.
# [3] = target: T2, dFXR (Canis lupus familiaris, UniProt A0A8I3N2S7); experiment: FXR cross species activity, dFXR; format: biochemical, dog; conditions: Table 2, cross species
# T2 construct: printed for the human protein only; fused on or other part: GST tag, printed only for the human construct
# [4] = target: T3, Human TGR5 (Homo sapiens, UniProt Q8TDU6); experiment: HTR-FRET intracellular cAMP assay in NCI-H716 cells; format: cell-based
# T3 construct: Human enteroendocrine NCI-H716 cells constitutively expressing TGR5; endogenous in cells; host or cells: NCI-H716
# T3 sequence (Q8TDU6 1-330): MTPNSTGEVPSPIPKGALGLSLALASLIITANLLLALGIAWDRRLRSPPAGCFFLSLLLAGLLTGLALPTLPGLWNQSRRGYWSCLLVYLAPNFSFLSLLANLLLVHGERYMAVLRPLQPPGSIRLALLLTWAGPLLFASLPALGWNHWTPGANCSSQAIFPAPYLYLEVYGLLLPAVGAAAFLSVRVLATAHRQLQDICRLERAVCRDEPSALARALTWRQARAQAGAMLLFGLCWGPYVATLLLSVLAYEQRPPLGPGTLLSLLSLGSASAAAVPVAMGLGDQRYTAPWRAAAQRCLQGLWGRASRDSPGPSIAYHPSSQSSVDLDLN
# [5] = target: PR (Homo sapiens, UniProt P06401); experiment: AlphaScreen nuclear receptor profile (agonist mode), PR; format: biochemical
# [6] = 1-octanol-water partition coefficient (LogPA-); format: physicochemical; conditions: bile acids as ionized species
# Procedure: (§1) Physiochemical properties of Compound 1 such as water solubility, critical micellar concentration, surface tension, and LogPA were determined using methods known in the art.
# [7] = Critical micellar concentration; format: physicochemical; conditions: in […] NaCl water solution
# [8] = target: VDR (Homo sapiens, UniProt P11473); experiment: AlphaScreen nuclear receptor profile (agonist mode), VDR; format: biochemical
# [9] = target: T4, CYP2E1 (Homo sapiens, UniProt P05181); experiment: CYP450 screening, fluorescent signal, recombinant baculosomes, CYP2E1; format: in vitro ADME
# T4 construct: purchased Invitrogen; host or cells: baculosomes (insect-cell microsomes)
# Source text: To evaluate the potential of Compound 1 for drug-drug interactions, the six main CYP450 isoforms (CYP1A2, CYP2C9, CYP2C19, CYP2D6, CYP2E1, CYP3A4) are investigated (Obach, et al., J Pharmacol. Exp. Ther, 2006, 316, 336-348).
# [10] = target: mTGR5 (Mus musculus, UniProt Q80SS6); experiment: TGR5 cross species activity, mTGR5; format: cell-based; conditions: Table 3, cross species
# [11] = target: T5, CYP1A2 (Homo sapiens, UniProt P05177); experiment: CYP450 screening, fluorescent signal, recombinant baculosomes, CYP1A2; format: in vitro ADME
# T5 construct: purchased Invitrogen
# [12] = target: dTGR5 (Canis lupus familiaris, UniProt A0A8I3PZA6); experiment: TGR5 cross species activity, dTGR5; format: cell-based, dog; conditions: Table 3, cross species
# [13] = target: rTGR5 (Rattus norvegicus, UniProt Q80T02); experiment: TGR5 cross species activity, rTGR5; format: cell-based; conditions: Table 3, cross species
# [14] = target: RAR; experiment: AlphaScreen nuclear receptor profile (agonist mode), RAR; format: biochemical
# [15] = target: T6, CYP2C19 (Homo sapiens, UniProt P33261); experiment: CYP450 screening, fluorescent signal, recombinant baculosomes, CYP2C19; format: in vitro ADME
# T6 construct: purchased Invitrogen; host or cells: baculosomes (insect-cell microsomes)
# [16] = target: T7, CYP3A4 (Homo sapiens, UniProt P08684); experiment: CYP450 screening, fluorescent signal, recombinant baculosomes, CYP3A4; format: in vitro ADME
# T7 construct: purchased Invitrogen
# [17] = target: PPARγ (Homo sapiens, UniProt P37231); experiment: AlphaScreen nuclear receptor profile (agonist mode), PPARγ; format: biochemical
# [18] = target: PPARα (Homo sapiens, UniProt Q07869); experiment: AlphaScreen nuclear receptor profile (agonist mode), PPARα; format: biochemical
# [19] = target: TR; experiment: AlphaScreen nuclear receptor profile (agonist mode), TR; format: biochemical
# [20] = target: ER; experiment: AlphaScreen nuclear receptor profile (agonist mode), ER; format: biochemical
# [21] = tested on: HepG2 cells; experiment: In vitro cytotoxicity, cell viability by ATP content; format: cell-based; conditions: Homo sapiens, HepG2, read-out: ATP Content EC50
# [22] = target: T8, Human FXR (Homo sapiens, UniProt Q96RI1); experiment: AlphaScreen assay, FXR-LBD-GST / SRC-1 LXXLL peptide recruitment; format: biochemical
# T8 construct: Human FXR-LBD-GST was incubated
# T8 sequence (Q96RI1 262-486 limits assumed): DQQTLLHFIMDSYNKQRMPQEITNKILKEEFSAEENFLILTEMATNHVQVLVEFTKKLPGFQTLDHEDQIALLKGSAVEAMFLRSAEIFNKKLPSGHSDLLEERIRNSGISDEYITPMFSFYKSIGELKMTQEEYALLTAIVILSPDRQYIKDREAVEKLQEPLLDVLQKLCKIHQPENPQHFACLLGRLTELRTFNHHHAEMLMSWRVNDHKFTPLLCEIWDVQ
# [23] = target: LXRα (Homo sapiens, UniProt Q13133); experiment: AlphaScreen nuclear receptor profile (agonist mode), LXRα; format: biochemical
# [24] = target: RXRα (Homo sapiens, UniProt P19793); experiment: AlphaScreen nuclear receptor profile (agonist mode), RXRα; format: biochemical
# [25] = target: T9, CYP2D6 (Homo sapiens, UniProt P10635); experiment: CYP450 screening, fluorescent signal, recombinant baculosomes, CYP2D6; format: in vitro ADME
# T9 construct: purchased Invitrogen; host or cells: baculosomes (insect-cell microsomes)
# [26] = tested on: HepG2 cells; experiment: In vitro cytotoxicity, LDH release; format: cell-based; conditions: Homo sapiens
# [27] = target: rFXR (Rattus norvegicus, UniProt Q62735); experiment: FXR cross species activity, rFXR; format: biochemical; conditions: Table 2, cross species
# [28] = target: hERG potassium channel (Homo sapiens, UniProt Q12809); experiment: biochemical
# [29] = target: mFXR (Mus musculus, UniProt Q60641); experiment: FXR cross species activity, mFXR; format: biochemical; conditions: Table 2, cross species
# [30] = target: GR (Homo sapiens, UniProt P04150); experiment: AlphaScreen nuclear receptor profile (agonist mode), GR; format: biochemical
# [31] = target: PPARδ (Homo sapiens, UniProt Q03181); experiment: AlphaScreen nuclear receptor profile (agonist mode), PPARδ; format: biochemical
# Source text: Using the AlphaScreen assay, the selectivity of Compound 1 against the following nuclear receptors involved in the metabolic pathways can be evaluated: LXRα, LXRβ, PXR, CAR, […], PPARδ, PPARγ, RAR, RARα, VDR, TR, PR, RXRα, GR, and ER.
# [32] = target: PXR (Homo sapiens, UniProt O75469); experiment: AlphaScreen nuclear receptor profile (agonist mode), PXR; format: biochemical
# [33] = target: T10, CYP2C9 (Homo sapiens, UniProt P11712); experiment: CYP450 screening, fluorescent signal, recombinant baculosomes, CYP2C9; format: in vitro ADME
# T10 construct: purchased Invitrogen
# [34] = target: CAR (Homo sapiens, UniProt Q14994); experiment: AlphaScreen nuclear receptor profile (agonist mode), CAR; format: biochemical
# [35] = Surface tension at CMC; format: physicochemical; conditions: in […] NaCl water solution; in mN/m (unit assumed)
# Procedure: as §1
# [36] = Water solubility; format: physicochemical; conditions: BA as protonated species, hs = highly soluble, read-out: Ws (water solubility)
# Procedure: as §1
smiles,measurement,setting,value
"CC[C@H]1[C@@H](O)[C@@H]2[C@H]([C@@H](O)C[C@]3(C)[C@@H]([C@H](C)CCC(=O)O)CC[C@@H]23)[C@@]2(C)CCCC[C@@H]12 [Compound 1, 7α,11β-dihydroxy-6α-ethyl-5β-cholan-24-oic acid]",EC50,[1],> 300 µM
same,EC50,[2],> 300 µM
same,EC50,[3],1.65 ± 0.05 µM
same,"selectivity for FXR over TGR5, in words",[4],high selectivity for FXR over TGR5
same,EC50,"[4]; Table 1, intracellular cAMP, NCI-H716 cells, quantity not named in head (EC50 per Table 3), read-out: HTR-FRET (cAMP) Human TGR5 (NCI-H716 cells)",> 200 µM
same,EC50,"[4]; Table 3, cross species, read-out: hTGR5 EC50",> 200 µM
same,EC50,[5],> 300 µM
same,LogPA- (1-octanol-water partition coefficient),[6],1.8
same,CMC (Critical Micellar Concentration),[7],2.0 mM
same,EC50,[8],> 300 µM
same,IC50,[9],> 10 µM
same,EC50,[10],> 200 µM
same,IC50,[11],> 10 µM
same,EC50,[12],> 200 µM
same,EC50,[13],> 200 µM
same,EC50,[14],> 300 µM
same,IC50,[15],> 10 µM
same,IC50,"[16]; Blue Substrate, read-out: CYP3A4 (Blue Substrate) IC50",> 10 µM
same,IC50,"[16]; Green Substrate, read-out: CYP3A4 (Green Substrate) IC50",> 10 µM
same,EC50,[17],> 300 µM
same,EC50,[18],> 300 µM
same,EC50,[19],> 300 µM
same,EC50,[20],> 300 µM
same,EC50,[21],> 300 µM
same,"FXR activation, in words",[22],potent and selective activator
same,EC50,"[22]; Table 1, Human FXR-LBD-GST with biotinylated LXXLL SRC-1 peptide, quantity not named in head (EC50 per Table 2)",0.14 ± 0.04 µM
same,"FXR activation, in words",[22]; listed as compound of this invention,potent FXR agonists
same,EC50,[23],> 300 µM
same,EC50,[24],> 300 µM
same,IC50,[25],> 10 µM
same,EC50,[26],> 300 µM
same,EC50,[27],0.49 ± 0.01 µM
same,IC50,[28],> 100 µM
same,EC50,[29],0.6 ± 0.02 µM
same,EC50,[30],> 300 µM
same,EC50,[31],> 300 µM
same,EC50,[32],> 300 µM
same,IC50,[33],> 10 µM
same,EC50,[34],> 300 µM
"CC[C@H]1[C@@H](O)[C@@H]2[C@H](CC[C@]3(C)[C@@H]([C@H](C)CCC(=O)O)CC[C@@H]23)[C@@]2(C)CC[C@@H](O)C[C@@H]12 [Compound A, 6α-ethyl-3α,7α-dihydroxy-5β-cholan-24-oic acid]",LogPA- (1-octanol-water partition coefficient),[6],2.5
same,STCMC (Surface Tension at CMC),[35],43.2-48.8
same,CMC (Critical Micellar Concentration),[7],2.9 mM
same,solubility,[36],9 mM
"CCC1C(O)C2C3CCC(C(C)CCOS(=O)(=O)O)C3(C)CCC2C2(C)CCC(O)CC12 (stereo not drawn) [Compound B, 6α-ethyl-3α,7α,23-trihydroxy-24-nor-5β-cholan-23-sulfate sodium salt]",LogPA- (1-octanol-water partition coefficient),[6],2.0
